Measurements from PubChem BioAssay AID1963874 (Molecular Pharmacology Branch, DTP, NCI, 2024).

System: 253994-281-T-J1-PDC KRAS-mutant spheroids with HUVEC/MSC, viability
Experiment: Anticancer human tumor 253994-281-T-J1-PDC patient-derived colorectal carcinoma cell line growth inhibition [KRAS2]
Conditions: for IC50: curve of first compound; for viability, T/C: stronger effect = lower value
Procedure, shortened: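 Combination screen of spheroid viability in tumor-cell co-cultures with endothelial (HUVEC) and mesenchymal stem cell stroma. Each agent was tested in half-log dilutions, topping at clinical Cmax or at 10 microM without a known Cmax.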

[1] = second compound 0.1 µM, first compound 0.000316 µM
[2] = second compound 0.1 µM, first compound 0.001 µM
[3] = second compound 0.1 µM, first compound 0.00316 µM
[4] = second compound 0.1 µM, first compound 0.01 µM
[5] = second compound 0.1 µM, first compound 0.0316 µM
[6] = second compound 0.1 µM, first compound 0.1 µM
[7] = second compound 0.316 µM, first compound 0.000316 µM
[8] = second compound 0.316 µM, first compound 0.001 µM
[9] = second compound 0.316 µM, first compound 0.00316 µM
[10] = second compound 0.316 µM, first compound 0.01 µM
[11] = second compound 0.316 µM, first compound 0.0316 µM
[12] = second compound 0.316 µM, first compound 0.1 µM
[13] = second compound 1 µM, first compound 0.000316 µM
[14] = second compound 1 µM, first compound 0.001 µM
[15] = second compound 1 µM, first compound 0.00316 µM
[16] = second compound 1 µM, first compound 0.01 µM
[17] = second compound 1 µM, first compound 0.0316 µM
[18] = second compound 1 µM, first compound 0.1 µM
[19] = second compound 3.16 µM, first compound 0.000316 µM
[20] = second compound 3.16 µM, first compound 0.001 µM
[21] = second compound 3.16 µM, first compound 0.00316 µM
[22] = second compound 3.16 µM, first compound 0.01 µM
[23] = second compound 3.16 µM, first compound 0.0316 µM
[24] = second compound 3.16 µM, first compound 0.1 µM
[25] = second compound 10 µM, first compound 0.01 µM
[26] = second compound 10 µM, first compound 0.0316 µM
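Further: spheroids exposed to agents for seven days before readout.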
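Wherever viability, T/C is given: percent of DMSO vehicle control viability.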

`CC(C)n1nc(-c2ccc3oc(N)nc3c2)c2c(N)ncnc21` + C=CC(=O)N1CCN(c2nc(OCC3CCCN3C)nc3c2CCN(c2cccc4cccc(C)c24)C3)CC1CC#N showed an IC50 (second compound 0.0316 µM) greater than 100 nM, an IC50 (second compound 0.1 µM) greater than 100 nM and an IC50 (second compound 0.316 µM) greater than 100 nM. For the same compound, the IC50 (second compound 1 µM) was greater than 100 nM, the IC50 (second compound 3.16 µM) was 0.686 nM and the viability, T/C (second compound 0.0316 µM, first compound 0.000316 µM) was 97.5%. It also gave a viability, T/C (second compound 0.0316 µM, first compound 0.001 µM) of 90.1%, a viability, T/C (second compound 0.0316 µM, first compound 0.00316 µM) of 80.2% and a viability, T/C (second compound 0.0316 µM, first compound 0.01 µM) of 82.7%. The viability, T/C (second compound 0.0316 µM, first compound 0.0316 µM) was 84%, the viability, T/C (second compound 0.0316 µM, first compound 0.1 µM) was 54.7% and the viability, T/C [1] was 95.6%. For the same compound, the viability, T/C [2] was 88.8%, the viability, T/C [3] was 89.1% and the viability, T/C [4] was 86.8%. For the same compound, the viability, T/C [5] was 85.8%, the viability, T/C [6] was 58.4% and the viability, T/C [7] was 95.4%. The viability, T/C [8] was 96.7%, the viability, T/C [9] was 85.2% and the viability, T/C [10] was 81.6%. For the same compound, the viability, T/C [11] was 68.7%, the viability, T/C [12] was 55% and the viability, T/C [13] was 106%. It also gave a viability, T/C [14] of 89.9%, a viability, T/C [15] of 79.1% and a viability, T/C [16] of 77.4%. The viability, T/C [17] was 68.5%, the viability, T/C [18] was 54% and the viability, T/C [19] was 73.4%. For the same compound, the viability, T/C [20] was 25.1%, the viability, T/C [21] was 56.7% and the viability, T/C [22] was 17%. For the same compound, the viability, T/C [23] was 62.4% and the viability, T/C [24] was 31.6%.
Compound `CC(=O)Nc1cccc(-n2c(=O)n(C3CC3)c(=O)c3c(Nc4ccc(I)cc4F)n(C)c(=O)c(C)c32)c1` + CC1OCC2(CCN(c3cnc(Sc4ccnc(N)c4Cl)c(N)n3)CC2)C1N has an IC50 (second compound 0.1 µM) of 0.565 nM, an IC50 (second compound 0.316 µM) of 0.205 nM and an IC50 (second compound 1 µM) of less than 0.1 nM. It also gave an IC50 (second compound 3.16 µM) of less than 0.1 nM, an IC50 (second compound 10 µM) of less than 0.1 nM and a viability, T/C (second compound 0.1 µM, first compound 0.0001 µM) of 64.3%. The viability, T/C [1] was 68.6%, the viability, T/C [2] was 34.1% and the viability, T/C [3] was 17.9%. The viability, T/C [4] was 10.1%, the viability, T/C [5] was 5.82% and the viability, T/C (second compound 0.316 µM, first compound 0.0001 µM) was 63.1%. It also gave a viability, T/C [7] of 42.8%, a viability, T/C [8] of 22.3% and a viability, T/C [9] of 14.1%. For the same compound, the viability, T/C [10] was 8.18%, the viability, T/C [11] was 4.42% and the viability, T/C (second compound 1 µM, first compound 0.0001 µM) was 40.5%. For the same compound, the viability, T/C [13] was 27.7%, the viability, T/C [14] was 14.1% and the viability, T/C [15] was 9.38%. It also gave a viability, T/C [16] of 7.13%, a viability, T/C [17] of 4.04% and a viability, T/C (second compound 3.16 µM, first compound 0.0001 µM) of 29.3%. It also gave a viability, T/C [19] of 23.6%, a viability, T/C [20] of 10.8% and a viability, T/C [21] of 5.83%. For the same compound, the viability, T/C [22] was 6.59%, the viability, T/C [23] was 3.09% and the viability, T/C (second compound 10 µM, first compound 0.0001 µM) was 16.5%. It also gave a viability, T/C (second compound 10 µM, first compound 0.000316 µM) of 7.93%, a viability, T/C (second compound 10 µM, first compound 0.001 µM) of 5.92% and a viability, T/C (second compound 10 µM, first compound 0.00316 µM) of 4.52%. For the same compound, the viability, T/C [25] was 3.06% and the viability, T/C [26] was 2.51%.
`CC1COCCN1c1cc(-c2ccnn2C)c2ccnc(-c3ccn[nH]3)c2n1` (stereo not given) + CNCc1ccccc1-c1csc(C(C)Nc2nc(C)nc3cc(OC)c(OC)cc23)c1 gave an IC50 (second compound 0.1 µM) greater than 3160 nM, an IC50 (second compound 0.316 µM) greater than 3160 nM and an IC50 (second compound 1 µM) of 296 nM. It also gave an IC50 (second compound 3.16 µM) of less than 10 nM, an IC50 (second compound 10 µM) of less than 10 nM and a viability, T/C [4] of 85.8%. It also gave a viability, T/C [5] of 106%, a viability, T/C [6] of 76.1% and a viability, T/C (second compound 0.1 µM, first compound 0.316 µM) of 50.7%. It also gave a viability, T/C (second compound 0.1 µM, first compound 1 µM) of 60.2%, a viability, T/C (second compound 0.1 µM, first compound 3.16 µM) of 52.4% and a viability, T/C [10] of 108%. The viability, T/C [11] was 91.5%, the viability, T/C [12] was 73.5% and the viability, T/C (second compound 0.316 µM, first compound 0.316 µM) was 46.5%. For the same compound, the viability, T/C (second compound 0.316 µM, first compound 1 µM) was 55.9%, the viability, T/C (second compound 0.316 µM, first compound 3.16 µM) was 57.1% and the viability, T/C [16] was 89.5%. It also gave a viability, T/C [17] of 85.5%, a viability, T/C [18] of 67.5% and a viability, T/C (second compound 1 µM, first compound 0.316 µM) of 47%. The viability, T/C (second compound 1 µM, first compound 1 µM) was 54.8%, the viability, T/C (second compound 1 µM, first compound 3.16 µM) was 42.1% and the viability, T/C [22] was 42.9%. It also gave a viability, T/C [23] of 42%, a viability, T/C [24] of 27.3% and a viability, T/C (second compound 3.16 µM, first compound 0.316 µM) of 17.9%. It also gave a viability, T/C (second compound 3.16 µM, first compound 1 µM) of 24%, a viability, T/C (second compound 3.16 µM, first compound 3.16 µM) of 14.9% and a viability, T/C [25] of 0.59%. It also gave a viability, T/C [26] of 0.21%, a viability, T/C (second compound 10 µM, first compound 0.1 µM) of 0.17% and a viability, T/C (second compound 10 µM, first compound 0.316 µM) of 0.19%. It also gave a viability, T/C (second compound 10 µM, first compound 1 µM) of 0.16% and a viability, T/C (second compound 10 µM, first compound 3.16 µM) of 0.23%.
